Assay results from PubChem BioAssay AID1963423 (Molecular Pharmacology Branch, DTP, NCI, 2024).
Values joined by “and” are separate entries in the source; they are usually repeats but may differ in a detail not shown here. Equal values may be shown once.

Tested on: 439559-082-T-J2-PDC complex spheroid growth
Experiment: Anticancer human tumor 439559-082-T-J2-PDC patient-derived colon adenocarcinoma cell line growth inhibition [Asc]
Conditions: for viability, T/C: stronger effect = lower value
Procedure: Multicellular complex tumor spheroid response to apoptosis pathway targeting inhibitors Alrizomadlin, Pelcitoclax, and Dasminapant in combination with a variety of drugs and investigational agents in selected tumor cell lines
The MDM2 inhibitor alrizomadlin, the Bcl-2/Bcl-xL inhibitor pelcitoclax, and the IAPs inhibitor dasminapant were evaluated both individually and in combination with standard of care and investigational anticancer small molecules within a complex spheroid model of solid tumors. . Complex spheroids include a stromal component modeled by human endothelial cells (HUVEC) and fibroblasts modeled by human mesenchymal stem cells (MSCs). The concentration ranges selected for each drug and investigational agent were based upon clinically achievable concentrations if the clinical Cmax of the agent was known.
Compounds. The drugs and investigational agents: alrizomadlin (APG-115; NSC831270), pelcitoclax (APG-1252; NSC835773), dasminapant (APG-1387;NSC834197), TAK-243 (NSC785004), copanlisib (NSC809693), olaparib (NSC753686), talazoparib (NSC767125), cobimetinib (NSC 768068), eltanexor (KPT-8602, NSC 794443), abemaciclib (NSC 768073), sotorasib (NSC818433), adagrasib (NSC 831453), MRTX-1133 (NSC 836407), Iadademestat (ORY1001, NSC 806812), and RMC-4630 (NSC839698), were obtained from the NCI Developmental Therapeutics Program Chemical Repository. The FDA-approved anticancer drug set is available from the Developmental Therapeutics Program at https://dtp.cancer.gov/organization/dscb/obtaining/available plates.htm. […] The stock solutions were prepared in dimethyl sulfoxide (DMSO, Sigma-Aldrich, St. Louis, MO, cat. D2650) at 800-fold the tested concentration and stored at -70 degrees C prior to their use. All drugs and investigational agents were tested over a range starting from a high concentration at or near the clinical Cmax and decreasing in half-log increments. If the clinical Cmax for an agent had not been determined, the highest concentration tested was 10 microM.
The patient-derived cancer (PDC) cell lines include five colon adenocarcinomas: 186277-243-T-J2-PDC, 616215-338-R-J1-PDC, 439559-082-T-J2-PDC, 463943-066-T-J2-PDC, and 519858-162-T-J1-PDC; three pancreatic carcinomas: 323965-272-R-J2-PDC, 521955-158-R6-J3-PDC, and 521955-158-R2-J5-PDC; two uterine sarcomas: 327498-152-R-J2-PDC and 993429-296-R-J1-PDC; two rhabdomyosarcomas: 755483-174-R-J1-PDC and 772245-204-R-J1-PDC; two soft tissue sarcomas: 126254-015-R-J1-PDC and 494315-158-R-J1-PDC; two malignant fibrous histiocytomas: 317291-083-R-J1-PDC and 596521-263-R-J1-PDC; two breast carcinomas: 171881-019-R-J1-PDC and 885512-296-R-J2-PDC; and one ovarian carcinoma: 6556581-035-R-J-PDC were obtained from the NCI PDMR, (https://pdmr.cancer.gov). The established cell lines HSSY-2 synovial sarcoma (RRID:CVCL 8719), SYO-1 synovial sarcoma (RRID:CVCL_7146), MPNST malignant peripheral neural sheath tumor were obtained from the Sloan Kettering Institute. The following established cell lines were purchased from the American Type Culture Collection (ATCC, Manassas, VA), Sor the received from the NCI repository:, PANC-1 pancreatic carcinoma (CRL-1469, RRID:CVCL_0480), OVCAR-5 ovarian carcinoma (RRID:CVCL_1628), OVCAR-8 ovarian carcinoma (RRID:CVCL_1629), , MCF-7 breast carcinoma (CRL-12584, RRID:CVCL_0031), MDA-MB-231 breast carcinoma (CRL-12532, RRID:CVCL_0062), NCI-H1876 small cell lung carcinoma (CRL-5902, RRID:CVCL_1503), NCI-H510A small cell lung carcinoma (HTB-184, RRID:CVCL_1565), NCI-H1417 (CRL-5869, RRID:CVCL_1469), and NCI-H196 small cell lung carcinoma (CRL-5823, RRID:CVCL_1509). Dr. Peter Houghton (Greehey Children's Cancer Research Institute, University of Texas Health Science Center, San Antonio, TX) provided Rh-18 rhabdomyosarcoma (RRID:CVCL_1659). Pooled donor human umbilical vein endothelial cells (HUVEC, Lonza, cat. CC-2519) and human mesenchymal stem cells (hMSC, Lonza, cat. PT-2501) were purchased from Lonza (Walkersville, MD).
Cell Culture. […]

[1] = curve of first compound, second compound 0.1 µM
[2] = curve of first compound, second compound 0.316 µM
[3] = curve of first compound, second compound 1 µM
[4] = second compound 0.1 µM, first compound 0.00316 µM
[5] = second compound 0.1 µM, first compound 0.01 µM
[6] = second compound 0.1 µM, first compound 0.0316 µM
[7] = second compound 0.1 µM, first compound 0.1 µM
[8] = second compound 0.1 µM, first compound 0.316 µM
[9] = second compound 0.1 µM, first compound 1 µM
[10] = second compound 0.316 µM, first compound 0.00316 µM
[11] = second compound 0.316 µM, first compound 0.01 µM
[12] = second compound 0.316 µM, first compound 0.0316 µM
[13] = second compound 0.316 µM, first compound 0.1 µM
[14] = second compound 0.316 µM, first compound 0.316 µM
[15] = second compound 0.316 µM, first compound 1 µM
[16] = second compound 1 µM, first compound 0.00316 µM
[17] = second compound 1 µM, first compound 0.01 µM
[18] = second compound 1 µM, first compound 0.0316 µM
[19] = second compound 1 µM, first compound 0.1 µM
[20] = second compound 1 µM, first compound 0.316 µM
[21] = second compound 1 µM, first compound 1 µM
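Also: spheroids exposed to agents for 7 days starting day 3 after seeding.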
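For viability, T/C in this document: percent of DMSO vehicle control viability with 100% = vehicle.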

SMILES: CCN1CCN(Cc2ccc(Nc3ncc(F)c(-c4cc(F)c5nc(C)n(C(C)C)c5c4)n3)nc2)CC1 + Cc1c(S(C)(=O)=O)c(-c2cc(F)cc(N3CCN(c4ccc(NS(=O)(=O)c5ccc(NC(CCN6CCC(C(=O)OCCCP(=O)(O)O)CC6)CSc6ccccc6)c(S(=O)(=O)C(F)(F)F)c5)cc4)CC3)c2)c(-c2ccc(Cl)cc2)n1C(C)C
- IC50 [1]: > 1 µM
- IC50 [2]: > 1 µM
- IC50 [3]: > 1 µM
- IC50 (curve of first compound, second compound 3.16 µM): > 1 µM
- IC50 (curve of first compound, second compound 10 µM): > 1 µM
- viability, T/C [4]: 93.5%
- viability, T/C [5]: 107%
- viability, T/C [6]: 94.2%
- viability, T/C [7]: 85.3%
- viability, T/C [8]: 92.8%
- viability, T/C [9]: 80.5%
- viability, T/C [10]: 101%
- viability, T/C [11]: 102%
- viability, T/C [12]: 103%
- viability, T/C [13]: 78.5%
- viability, T/C [14]: 84.2%
- viability, T/C [15]: 73.4%
- viability, T/C [16]: 96.5%
- viability, T/C [17]: 93.5%
- viability, T/C [18]: 94.3%
- viability, T/C [19]: 80.5%
- viability, T/C [20]: 80%
- viability, T/C [21]: 70%
- viability, T/C (second compound 3.16 µM, first compound 0.00316 µM): 85.1%
- viability, T/C (second compound 3.16 µM, first compound 0.01 µM): 92.5%
- viability, T/C (second compound 3.16 µM, first compound 0.0316 µM): 98.9%
- viability, T/C (second compound 3.16 µM, first compound 0.1 µM): 72.4%
- viability, T/C (second compound 3.16 µM, first compound 0.316 µM): 69.4%
- viability, T/C (second compound 3.16 µM, first compound 1 µM): 68.6%
- viability, T/C (second compound 10 µM, first compound 0.00316 µM): 82.4%
- viability, T/C (second compound 10 µM, first compound 0.01 µM): 81.7%
- viability, T/C (second compound 10 µM, first compound 0.0316 µM): 83.2%
- viability, T/C (second compound 10 µM, first compound 0.1 µM): 63.5%
- viability, T/C (second compound 10 µM, first compound 0.316 µM): 61.2%
- viability, T/C (second compound 10 µM, first compound 1 µM): 50.1%

SMILES: COc1c(OCCCN2CCOCC2)ccc2c3n(c(=NC(=O)c4cnc(N)nc4)nc12)CCN3 + CNC(C)C(=O)NC1CN(S(=O)(=O)c2cccc(S(=O)(=O)N3CCC4CCC(C(=O)NC(c5ccccc5)c5ccccc5)N4C(=O)C(NC(=O)C(C)NC)C3)c2)CCC2CCC(C(=O)NC(c3ccccc3)c3ccccc3)N2C1=O
- IC50 (curve of first compound, second compound 0.00316 µM): > 1 µM
- IC50 (curve of first compound, second compound 0.01 µM): > 1 µM
- IC50 (curve of first compound, second compound 0.0316 µM): > 1 µM
- IC50 [1]: > 1 µM
- IC50 [2]: > 1 µM
- IC50 [3]: 0.38 µM
- viability, T/C (second compound 0.00316 µM, first compound 0.00316 µM): 100%
- viability, T/C (second compound 0.00316 µM, first compound 0.01 µM): 95.2%
- viability, T/C (second compound 0.00316 µM, first compound 0.0316 µM): 98.9%
- viability, T/C (second compound 0.00316 µM, first compound 0.1 µM): 80.8%
- viability, T/C (second compound 0.00316 µM, first compound 0.316 µM): 72.6%
- viability, T/C (second compound 0.00316 µM, first compound 1 µM): 64.7%
- viability, T/C (second compound 0.01 µM, first compound 0.00316 µM): 102%
- viability, T/C (second compound 0.01 µM, first compound 0.01 µM): 88.6%
- viability, T/C (second compound 0.01 µM, first compound 0.0316 µM): 99.1%
- viability, T/C (second compound 0.01 µM, first compound 0.1 µM): 84.5%
- viability, T/C (second compound 0.01 µM, first compound 0.316 µM): 73.8%
- viability, T/C (second compound 0.01 µM, first compound 1 µM): 63.4%
- viability, T/C (second compound 0.0316 µM, first compound 0.00316 µM): 93.2%
- viability, T/C (second compound 0.0316 µM, first compound 0.01 µM): 98.8%
- viability, T/C (second compound 0.0316 µM, first compound 0.0316 µM): 92.5%
- viability, T/C (second compound 0.0316 µM, first compound 0.1 µM): 77.4%
- viability, T/C (second compound 0.0316 µM, first compound 0.316 µM): 81.5%
- viability, T/C (second compound 0.0316 µM, first compound 1 µM): 71.2%
- viability, T/C [4]: 96.2%
- viability, T/C [5]: 109%
- viability, T/C [6]: 82.2%
- viability, T/C [7]: 78.9%
- viability, T/C [8]: 70.5%
- viability, T/C [9]: 62.6%
- viability, T/C [10]: 94.9%
- viability, T/C [11]: 89%
- viability, T/C [12]: 85.1%
- viability, T/C [13]: 66.3%
- viability, T/C [14]: 61.3%
- viability, T/C [15]: 58.6%
- viability, T/C [16]: 80.8%
- viability, T/C [17]: 74.5%
- viability, T/C [18]: 65.6%
- viability, T/C [19]: 53.1%
- viability, T/C [20]: 53.8%
- viability, T/C [21]: 44.8%

SMILES: Cc1nc(N2CCC3(CC2)COC(C)C3N)c(CO)nc1Sc1ccnc(N)c1Cl (centres undefined)
- viability, T/C (compound 0.00949 µM): 89.8% and 104% and 107%
- viability, T/C (compound 0.03 µM): 93.7% and 111% and 108%
- viability, T/C (compound 0.0949 µM): 102% and 99.4% and 101%
- viability, T/C (compound 0.3 µM): 110% and 91.8% and 99.9%
- viability, T/C (compound 0.949 µM): 99.8% and 94.1% and 92%
- viability, T/C (compound 3 µM): 72.1% and 79.7% and 81.7%
- IC50 (curve of compound): > 3 µM
